The text below walks through data of US20020192736A1, “Assay of peroxidase activity” (Pierce Chemical Company, priority 2001, published 2002).

For experiment [1], the target named is T1, B-HRP (Armoracia rusticana, UniProt P00433).
T1 sequence (P00433 31-338): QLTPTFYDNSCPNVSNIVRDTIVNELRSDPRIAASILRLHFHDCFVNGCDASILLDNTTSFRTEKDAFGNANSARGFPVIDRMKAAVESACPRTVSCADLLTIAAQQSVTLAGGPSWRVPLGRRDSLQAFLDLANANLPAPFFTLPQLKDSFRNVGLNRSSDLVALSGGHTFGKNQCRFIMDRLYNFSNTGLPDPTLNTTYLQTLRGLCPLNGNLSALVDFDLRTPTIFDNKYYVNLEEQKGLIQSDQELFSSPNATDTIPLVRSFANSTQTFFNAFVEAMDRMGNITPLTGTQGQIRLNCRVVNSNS
As to the kind of experiment: Dot blot assay with B-HRP, film densitometry. The conditions noted are these: for Net Relative Intensity at 0.98 pg B-HRP / Net Relative Intensity at 3.9 pg B-HRP / Net Relative Intensity at 62.5 pg B-HRP / Net Relative Intensity at 250 pg B-HRP: […] Azine Enhancer, 5 mM Sodium Luminol.

Experiment [2] addresses horseradish peroxidase labeled streptavidin (SA-HRP) (Armoracia rusticana, UniProt P00433). The experiment in a line: Dot blot assay on nitrocellulose membrane, film densitometry (relative intensity). The class given is biochemical.
The subject of experiment [3] is oxidized peroxidase. As to the kind of experiment: Poisoning of the chemiluminescent system. Format: biochemical. Conditions: azine with hydrogen atom bonded to the ring nitrogen. The procedure:
The contaminant has been identified as a reducing azine species wherein the azine is capable of donating an electron or otherwise reacting with oxidized peroxidase (or peroxidase equivalent). […] This characterization has been made both by theoretic analysis, chemical analysis to determine the presence of the 10=H species, and by reconstruction experiments wherein the “poisoning azine” was added to highly purified azine compositions in order to quantitate the poisoning effects, and to establish the preferred purity of the azine enhancers. […] Concentrations or absolute amounts of a target analyte, which are one-tenth the minimum detectable by other systems can be detected in preferred systems of the invention. […]
This species is a non-enhancing oxidized species of […]. […] If a thiazine with a hydrogen in the 10-yl position is proven to be a non-poisoning species (by its inability to readily react with oxidized peroxidase at room temperature), its presence in or absence from the solution is inconsequential. […] By describing these compounds as inert or not readily reactive with oxidized peroxidase, the basis for the consideration of these terms is visible effects upon luminescence in a peroxidase system. […]

Setting [4] is: 50 μM Azine Enhancer, 1 mM Sodium Luminol.
[5] abbreviates: […] Azine Enhancer, 5 mM Sodium Luminol.
The mark [6] stands for this setting: 20 pg SA-HRP, enhancer concentrations as in row ([…] 1c; 52 μM 1c; 52 μM 1b; 13.5 μM 3).
Setting [7] is: 30 minute reexposure, working solutions: […] 1c, 52 μM 1c, 52 μM 1b, 13.5 μM 3, 52 μM 1b + 13.5 μM 3.

Where “and” joins values, the source holds several entries; their conditions need not be identical. Equal entries are not always repeated. Where two headings read alike, the source gives them in different places.

horseradish peroxidase labeled streptavidin (SA-HRP), sequence (P22629 25-183 partner, one chain of several): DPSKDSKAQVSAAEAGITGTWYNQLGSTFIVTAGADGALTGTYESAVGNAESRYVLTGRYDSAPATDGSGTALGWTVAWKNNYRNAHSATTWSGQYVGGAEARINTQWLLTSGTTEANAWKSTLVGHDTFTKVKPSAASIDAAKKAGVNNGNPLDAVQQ

With “2-chloro-10 (3 trimethyl amino propyl)-phenothiazonan bromide [Azine Enhancer 1d]”, in experiment [1], the “Net Relative Intensity at 0.98 pg B-HRP” value was determined as 0, the “Net Relative Intensity at 3.9 pg B-HRP” value is reported as 0, the “Net Relative Intensity at 62.5 pg B-HRP” value was found to be 1.70 and the “Net Relative Intensity at 250 pg B-HRP” value is 15.63. The “Net Relative Intensity at 1000 pg SA-HRP” value in experiment [2] is 1,106,656 and 1,538,600.
Regarding `CN1c2ccccc2Sc2ccccc21` [Azine Enhancer 1b, N-Methylphenothiazine], in experiment [2], the “Net Relative Intensity at 10 pg SA-HRP” value was 0, the “Net Relative Intensity at 100 pg SA-HRP” value amounted to 0, the “Relative Intensity 2 pg SA-HRP” value turned out to be 0 and the “Relative Intensity 5 pg SA-HRP” value came to 0. For the same molecule, in experiment [2], the “Relative Intensity 20 pg SA-HRP” value is on record as 573,864, the “Relative Intensity 1 minute” value is 457,800, the “Relative Intensity 5 minutes” value is listed as 628,408 and the “Relative Intensity 30 minutes” value is 573,864. For the same molecule, in experiment [2], the “Relative Intensity 1 hours” value is reported as 502,376 and the “Relative Intensity 24 hours” value was determined as 0.
Take `O=C(O)CCCN1c2ccccc2Sc2ccccc21` [Azine Enhancer 1e]: in experiment [2] (setting [4]), the “Net Relative Intensity at 10 pg SA-HRP” value is reported as 1,416,056, the “Net Relative Intensity at 100 pg SA-HRP” value was 4,351,240 and the “Net Relative Intensity at 1000 pg SA-HRP” value is recorded as 9,599,880. Moreover, in experiment [2] (setting [5]), the “Net Relative Intensity at 10 pg SA-HRP” value is 432,352, the “Net Relative Intensity at 100 pg SA-HRP” value is reported as 3,021,440 and the “Net Relative Intensity at 1000 pg SA-HRP” value is 8,706,320.
Regarding `O=S(=O)([O-])CCCCN1c2ccccc2Sc2ccccc21.[Na+]` [Azine Enhancer 1f], in experiment [1], the “Net Relative Intensity at 0.98 pg B-HRP” value is reported as 12.05, the “Net Relative Intensity at 3.9 pg B-HRP” value was 28.77, the “Net Relative Intensity at 62.5 pg B-HRP” value stood at 91.44 and the “Net Relative Intensity at 250 pg B-HRP” value was 151.53.
As for `CC(CN1c2ccccc2Sc2ccccc21)C[N+](C)(C)C.[Cl-]` (stereo not drawn) [Azine Enhancer 1g], in experiment [1], the “Net Relative Intensity at 0.98 pg B-HRP” value was found to be 0, the “Net Relative Intensity at 3.9 pg B-HRP” value is recorded as 0, the “Net Relative Intensity at 62.5 pg B-HRP” value came out at 2.16 and the “Net Relative Intensity at 250 pg B-HRP” value amounted to 17.92.
Take `O=S(=O)([O-])CCCCN1c2ccccc2Sc2ccc(Cl)cc21.[Na+]` [Azine Enhancer 1h]: in experiment [1], the “Net Relative Intensity at 0.98 pg B-HRP” value amounted to 0.20, the “Net Relative Intensity at 3.9 pg B-HRP” value amounted to 0.55, the “Net Relative Intensity at 62.5 pg B-HRP” value is 44.09 and the “Net Relative Intensity at 250 pg B-HRP” value is listed as 75.58.
For `c1ccc2c(c1)Nc1ccccc1S2` [Azine Poison 1a, phenothiazine], in experiment [1], the “Background RI at 0 pg of B-HRP” value is 7.74 and 6.15 and 6.01 and 7.24; the “Relative Intensity at 250 pg of B-HRP” value was 180.38 and 209.39 and 165.28.
Consider `O=C1C=CC(=Nc2ccc(O)cc2)C=C1` [Phenolic Enhancer 3, Phenolindophenol/indophenol], for which, in experiment [2] (setting [6]), the “Relative Intensity 1 minute” value was 747,888, the “Relative Intensity 5 minutes” value is on record as 707,432, the “Relative Intensity 30 minutes” value was 598,082 and the “Relative Intensity 1 hours” value is 492,016. In experiment [2] (setting [6]), the “Relative Intensity 2 hours” value is 274,888 and the “Relative Intensity 24 hours” value is recorded as 0. In experiment [2] (setting [7]), the “Relative Intensity 2 pg SA-HRP” value turned out to be 0, the “Relative Intensity 5 pg SA-HRP” value was 106,776 and the “Relative Intensity 20 pg SA-HRP” value is given as 598,072.
In the case of `[O-][O+]1c2ccccc2Nc2ccccc21` [phenoxazine-5-oxide], the “poisoning of the chemiluminescent system” value in experiment [3] is given as “does not poison the system”.
